Series [1] is described as follows: Solvate crystal growth in seeded solutions of Insecticide A in 2-heptanone/Solvent A mixtures (Example 2). The class given is physicochemical. To be noted: seeded with Solvent A solvate crystals, 22° C., one month. The procedure: Four solutions of 2-heptanone in Solvent A were prepared by mixing 1 part by weight of 2-heptanone with 2, 4, 6 and 8 parts by weight, respectively, of solvent A. Then Insecticide A was dissolved in each of these solutions by slowly adding 4.98 parts by weight of Insecticide A to well agitated 63.92 parts by weight of the respective solution at room temperature. It typically took 1 to 3 hours for complete dissolution. After Insecticide A was fully dissolved, each of the four samples was seeded with the Solvent A solvate crystals of Insecticide A prepared in Example 1. Then the four samples were kept at 22° C. for one month and afterwards were visually inspected for solvate crystal growth.

A short description of series [2]: Precipitation from a solution of Insecticide A in Solvent A on continued agitation at room temperature (Example 1, comparative). The class given is physicochemical. The procedure:
A solution of Insecticide A (pyripyropene derivative I) in Solvent A was prepared by slowly adding 4.98 parts by weight of Insecticide A to well agitated 63.92 parts by weight of Solvent A at room temperature. It typically took 1 to 3 hours for complete dissolution depending on the addition rate of Insecticide A and on the mode of agitation. After the agitation had been continued for additional approximately 12 hours the clear solution started to turn cloudy, indicating the precipitation of Solvent A solvate crystals of Insecticide A. Microscopy analysis confirmed that the precipitation was indeed crystalline.

Results on 1 compound are retold here after patent publication US20150031535A1, “Liquid concentrate formulation containing a pyripyropene insecticide III” (BASF SE, priority 2012, published 2015).

On to `C[C@]1(COC(=O)C2CC2)[C@@H]2C[C@H](O)[C@@]3(C)Oc4cc(-c5cccnc5)oc(=O)c4[C@H](O)[C@@H]3[C@@]2(C)CC[C@@H]1OC(=O)C1CC1` [Insecticide A], for which the “solvate crystal growth (visual inspection)” value in series [1] (2-heptanone to Solvent A ratio 1:2) is “no crystal growth was observed”; in series [1] (2-heptanone to Solvent A ratio 1:4), “no crystal growth was observed”; in series [1] (2-heptanone to Solvent A ratio 1:6), “crystal growth was detected”; in series [1] (2-heptanone to Solvent A ratio 1:8) it was “crystal growth was detected”. For the same compound, the “microscopy analysis of the precipitation” value in series [2] (4.98 parts Insecticide A in 63.92 parts Solvent A) is listed as “crystalline”. In series [2] (4.98 parts by weight Insecticide A in 63.92 parts by weight Solvent A, after complete dissolution), the “additional agitation time after which the clear solution started to turn cloudy (precipitation of Solvent A solvate crystals)” value is given as “approximately 12 hours”.
